# Assay results reported in patent US12435044B2, “Pyridazinone herbicides and pyridazinone intermediates used to prepare a herbicide” (FMC Corporation, priority 2018, dated 2025).
# Columns and labels:
# Type in all cases: in vivo
# [1] = test system: sedge, umbrella (small-flower umbrella sedge, Cyperus difformis); test: Test B flooded paddy test; details: Flood, 250 g ai/ha
# Procedure: Plant species in the flooded paddy test selected from rice (Oryza sativa), sedge, umbrella (small-flower umbrella sedge, Cyperus difformis), duck salad (Heteranthera limosa) and barnyardgrass (Echinochloa crus-galli) were grown to the 2-leaf stage for testing. At time of treatment, test pots were flooded to 3 cm above the soil surface, treated by application of test compounds directly to the paddy water, and then maintained at that water depth for the duration of the test. Treated plants and controls were maintained in a greenhouse for 13 to 15 d, after which time all species were compared to controls and visually evaluated. Plant response ratings, summarized in Table B, are based on a scale of 0 to 100 where 0 is no effect and 100 is complete control. A dash (-) response means no test result.
# corn (Zea mays) = test: Test A postemergence greenhouse test
# From the text: (§1) Seeds of plant species selected from barnyardgrass (Echinochloa crus-galli), kochia (Kochia scoparia), ragweed (common ragweed, Ambrosia elatior), ryegrass, Italian (Lolium multiflorum), foxtail, giant (Setaria faberii), foxtail, green (Setaria viridis) and pigweed (Amaranthus retroflexus) were planted into a blend of loam soil and sand and treated preemergence with a directed soil spray using test chemicals formulated in a non-phytotoxic solvent mixture which included a surfactant.
# (§2) At the same time, plants selected from these weed species and also wheat (Triticum aestivum), corn (Zea mays), blackgrass (Alopecurus myosuroides) and galium (catchweed bedstraw, Galium aparine) were planted in pots containing the same blend of loam soil and sand and treated with postemergence applications of test chemicals formulated in the same manner. Plants ranged in height from 2 to 10 cm and were in the one- to two-leaf stage for the postemergence treatment. Treated plants and untreated controls were maintained in a greenhouse for approximately 10 d, after which time all treated plants were compared to untreated controls and visually evaluated for injury. Plant response ratings, summarized in Table A, are based on a 0 to 100 scale where 0 is no effect and 100 is complete control. A dash (-) response means no test result.
# [2] = test system: blackgrass (Alopecurus myosuroides); test: Test A postemergence greenhouse test
# From the text: as §1, §2
# [3] = test system: wheat (Triticum aestivum); test: Test A postemergence greenhouse test
# From the text: as §1, §2
# [4] = test system: galium (catchweed bedstraw, Galium aparine); test: Test A postemergence greenhouse test
# From the text: as §1, §2
# [5] = test system: oilseed rape (Brassica napus); test: Test D pre-/postemergence controlled growth environment test
# From the text: (§3) Seeds of plant species selected from blackgrass (Alopecurus myosuroides), galium (catchweed bedstraw, Galium aparine), kochia (Kochia scoparia), oilseed rape (Brassica napus), barley, spring (Hordeum vulgare), wheat, spring (Triticum aestivum), oat, wild (Avena fatua), barley, winter (Hordeum vulgare) and wheat, winter (Triticum aestivum) were planted into a silt loam soil and treated preemergence with test chemicals formulated in a non-phytotoxic solvent mixture which included a surfactant.
# (§4) At the same time, plants selected from these crop and weed species and also bluegrass (annual bluegrass, Poa annua), canarygrass (littleseed canarygrass, Phalaris minor), chickweed (common chickweed, Stellaria media), bromegrass, downy (downy bromegrass, Bromus tectorum), field poppy (Papaver rhoeas), field violet (Viola arvensis), foxtail, green (Setaria viridis), deadnettle (henbit deadnettle, Lamium amplexicaule), ryegrass, Italian (Lolium multiflorum), lambsquarters (Chenopodium album), pigweed (Amaranthus retroflexus), chamomile (scentless chamomile, Matricaria inodora), Russian thistle (Salsola kali), speedwell (bird's-eye speedwell, Veronica persica), buckwheat, wild (Polygonum convolvulus), mustard, wild (Sinapis arvensis), radish, wild (Raphanus raphanistrum), windgrass (Apera spica-venti), geranium, cutleaf (Geranium dissectum) and Canada thistle (Cirsium arvense) were planted in pots containing Redi-Earth® planting medium (Scotts Company, 14111 Scottslawn Road, Marysville, Ohio 43041) comprising spaghnum peat moss, vermiculite, wetting agent and starter nutrients and treated with postemergence applications of the test chemicals formulated in the same manner. Plants ranged in height from 2 to 18 cm (1- to 4-leaf stage). Treated plants and controls were maintained in a controlled growth environment for 14 to 21 d after which time all species were compared to controls and visually evaluated. Plant response ratings, summarized in Table D, are based on a scale of 0 to 100 where 0 is no effect and 100 is complete control. A dash (-) response means no test result.
# [6] = test system: blackgrass (Alopecurus myosuroides); test: as above
# From the text: as §3, §4
# [7] = test system: wheat, winter (Triticum aestivum); test: as above
# From the text: as §3, §4
# [8] = test system: barley, winter (Hordeum vulgare); test: as above
# From the text: as §3, §4
# kochia (Kochia scoparia) = test: as above
# From the text: as §3, §4
# [9] = test system: barley, spring (Hordeum vulgare); test: as above
# From the text: as §3, §4
# [10] = test system: wheat, spring (Triticum aestivum); test: as above
# From the text: as §3, §4
# oat, wild (Avena fatua) = test: as above
# From the text: as §3, §4
# [11] = test system: galium (catchweed bedstraw, Galium aparine); test: as above
# From the text: as §3, §4
smiles,measurement,setting,value
Cc1ccc2ccc(F)cc2c1-c1c(O)c(Cl)nn(C)c1=O [Cpd. No. 21],Plant response rating (0 to 100 scale),[1],90
same,Plant response rating (0 to 100 scale),corn (Zea mays); 31 g ai/ha,10
same,Plant response rating (0 to 100 scale),corn (Zea mays); 125 g ai/ha,20
same,Plant response rating (0 to 100 scale),[2]; 31 g ai/ha,50
same,Plant response rating (0 to 100 scale),[2]; 125 g ai/ha,70
same,Plant response rating (0 to 100 scale),[3]; 31 g ai/ha,50
same,Plant response rating (0 to 100 scale),[3]; 125 g ai/ha,80
same,Plant response rating (0 to 100 scale),[4]; 31 g ai/ha,100
same,Plant response rating (0 to 100 scale),[4]; 125 g ai/ha,100
"Cc1ccc2ccc(C)c(-c3c(O)c(Cl)nn(C)c3=O)c2c1 [Cpd. No. 20, 6-chloro-4-(2,7-dimethyl-1-naphthalenyl)-5-hydroxy-2-methyl-3(2H)-pyridazinone]","Plant response rating, Oilseed Rape","[5]; Postemergence, 16 g ai/ha",15
same,"Plant response rating, Oilseed Rape","[5]; Postemergence, 31 g ai/ha",15
same,"Plant response rating, Oilseed Rape","[5]; Postemergence, 62 g ai/ha",20
same,"Plant response rating, Oilseed Rape","[5]; Postemergence, 125 g ai/ha",25
same,"Plant response rating, Oilseed Rape","[5]; Preemergence, 16 g ai/ha",0
same,"Plant response rating, Oilseed Rape","[5]; Preemergence, 31 g ai/ha",0
same,"Plant response rating, Oilseed Rape","[5]; Preemergence, 62 g ai/ha",0
same,"Plant response rating, Oilseed Rape","[5]; Preemergence, 125 g ai/ha",0
same,"Plant response rating, Blackgrass","[6]; Postemergence, 16 g ai/ha",15
same,"Plant response rating, Blackgrass","[6]; Postemergence, 31 g ai/ha",25
same,"Plant response rating, Blackgrass","[6]; Postemergence, 62 g ai/ha",50
same,"Plant response rating, Blackgrass","[6]; Postemergence, 125 g ai/ha",60
same,"Plant response rating, Blackgrass","[6]; Preemergence, 16 g ai/ha",0
same,"Plant response rating, Blackgrass","[6]; Preemergence, 31 g ai/ha",8
same,"Plant response rating, Blackgrass","[6]; Preemergence, 62 g ai/ha",20
same,"Plant response rating, Blackgrass","[6]; Preemergence, 125 g ai/ha",58
same,"Plant response rating, Wheat, Winter","[7]; Postemergence, 16 g ai/ha",10
same,"Plant response rating, Wheat, Winter","[7]; Postemergence, 31 g ai/ha",15
same,"Plant response rating, Wheat, Winter","[7]; Postemergence, 62 g ai/ha",20
same,"Plant response rating, Wheat, Winter","[7]; Postemergence, 125 g ai/ha",30
same,"Plant response rating, Wheat, Winter","[7]; Preemergence, 16 g ai/ha",0
same,"Plant response rating, Wheat, Winter","[7]; Preemergence, 31 g ai/ha",0
same,"Plant response rating, Wheat, Winter","[7]; Preemergence, 62 g ai/ha",5
same,"Plant response rating, Wheat, Winter","[7]; Preemergence, 125 g ai/ha",17
same,"Plant response rating, Barley, Winter","[8]; Postemergence, 16 g ai/ha",0
same,"Plant response rating, Barley, Winter","[8]; Postemergence, 31 g ai/ha",5
same,"Plant response rating, Barley, Winter","[8]; Postemergence, 62 g ai/ha",15
same,"Plant response rating, Barley, Winter","[8]; Postemergence, 125 g ai/ha",15
same,"Plant response rating, Barley, Winter","[8]; Preemergence, 16 g ai/ha",0
same,"Plant response rating, Barley, Winter","[8]; Preemergence, 31 g ai/ha",0
same,"Plant response rating, Barley, Winter","[8]; Preemergence, 62 g ai/ha",0
same,"Plant response rating, Barley, Winter","[8]; Preemergence, 125 g ai/ha",0
same,"Plant response rating, Kochia","kochia (Kochia scoparia); Postemergence, 16 g ai/ha",70
same,"Plant response rating, Kochia","kochia (Kochia scoparia); Postemergence, 31 g ai/ha",70
same,"Plant response rating, Kochia","kochia (Kochia scoparia); Postemergence, 62 g ai/ha",70
same,"Plant response rating, Kochia","kochia (Kochia scoparia); Postemergence, 125 g ai/ha",80
same,"Plant response rating, Kochia","kochia (Kochia scoparia); Preemergence, 16 g ai/ha",7
same,"Plant response rating, Kochia","kochia (Kochia scoparia); Preemergence, 31 g ai/ha",25
same,"Plant response rating, Kochia","kochia (Kochia scoparia); Preemergence, 62 g ai/ha",35
same,"Plant response rating, Kochia","kochia (Kochia scoparia); Preemergence, 125 g ai/ha",80
same,"Plant response rating, Barley, Spring","[9]; Postemergence, 16 g ai/ha",0
same,"Plant response rating, Barley, Spring","[9]; Postemergence, 31 g ai/ha",5
same,"Plant response rating, Barley, Spring","[9]; Postemergence, 62 g ai/ha",10
same,"Plant response rating, Barley, Spring","[9]; Postemergence, 125 g ai/ha",20
same,"Plant response rating, Barley, Spring","[9]; Preemergence, 16 g ai/ha",0
same,"Plant response rating, Barley, Spring","[9]; Preemergence, 31 g ai/ha",0
same,"Plant response rating, Barley, Spring","[9]; Preemergence, 62 g ai/ha",2
same,"Plant response rating, Barley, Spring","[9]; Preemergence, 125 g ai/ha",10
same,"Plant response rating, Wheat, Spring","[10]; Postemergence, 16 g ai/ha",15
same,"Plant response rating, Wheat, Spring","[10]; Postemergence, 31 g ai/ha",25
same,"Plant response rating, Wheat, Spring","[10]; Postemergence, 62 g ai/ha",35
same,"Plant response rating, Wheat, Spring","[10]; Postemergence, 125 g ai/ha",55
same,"Plant response rating, Wheat, Spring","[10]; Preemergence, 16 g ai/ha",0
same,"Plant response rating, Wheat, Spring","[10]; Preemergence, 31 g ai/ha",12
same,"Plant response rating, Wheat, Spring","[10]; Preemergence, 62 g ai/ha",28
same,"Plant response rating, Wheat, Spring","[10]; Preemergence, 125 g ai/ha",62
same,"Plant response rating, Oat, Wild","oat, wild (Avena fatua); Postemergence, 16 g ai/ha",25
same,"Plant response rating, Oat, Wild","oat, wild (Avena fatua); Postemergence, 31 g ai/ha",65
same,"Plant response rating, Oat, Wild","oat, wild (Avena fatua); Postemergence, 62 g ai/ha",80
same,"Plant response rating, Oat, Wild","oat, wild (Avena fatua); Postemergence, 125 g ai/ha",90
same,"Plant response rating, Oat, Wild","oat, wild (Avena fatua); Preemergence, 16 g ai/ha",22
same,"Plant response rating, Oat, Wild","oat, wild (Avena fatua); Preemergence, 31 g ai/ha",33
same,"Plant response rating, Oat, Wild","oat, wild (Avena fatua); Preemergence, 62 g ai/ha",73
same,"Plant response rating, Oat, Wild","oat, wild (Avena fatua); Preemergence, 125 g ai/ha",83
same,"Plant response rating, Galium","[11]; Postemergence, 16 g ai/ha",80
same,"Plant response rating, Galium","[11]; Postemergence, 31 g ai/ha",90
same,"Plant response rating, Galium","[11]; Postemergence, 62 g ai/ha",90
same,"Plant response rating, Galium","[11]; Postemergence, 125 g ai/ha",99
same,"Plant response rating, Galium","[11]; Preemergence, 16 g ai/ha",78
same,"Plant response rating, Galium","[11]; Preemergence, 31 g ai/ha",85
same,"Plant response rating, Galium","[11]; Preemergence, 62 g ai/ha",97
same,"Plant response rating, Galium","[11]; Preemergence, 125 g ai/ha",100
same,Plant response rating (0 to 100 scale),[1],90
same,Plant response rating (0 to 100 scale),corn (Zea mays); 31 g ai/ha,30
same,Plant response rating (0 to 100 scale),corn (Zea mays); 125 g ai/ha,30
same,Plant response rating (0 to 100 scale),[2]; 31 g ai/ha,0
same,Plant response rating (0 to 100 scale),[2]; 125 g ai/ha,60
same,Plant response rating (0 to 100 scale),[3]; 31 g ai/ha,20
same,Plant response rating (0 to 100 scale),[3]; 125 g ai/ha,30
same,Plant response rating (0 to 100 scale),[4]; 31 g ai/ha,90
same,Plant response rating (0 to 100 scale),[4]; 125 g ai/ha,100
